Assay results reported in patent US20240376148A1, “MEDICAMENT FOR INHIBITING DIETARY OBESITY AND POLYPEPTIDE USED THEREFOR” (INSTITUTE OF ZOOLOGY, CHINESE ACADEMY OF SCIENCES, priority 2022, published 2024).

What was measured:
[1] = SPF mice feeding experiment (high-fat diet); type: in vivo, C57/B16J mice; details: for subcutaneous and visceral fat weight (inguinal subcutaneous, epididymis, perirenal) vs HFD group: 8 weeks; for weekly feed intake vs control HFD group: after 3-4 weeks; for body weight decrease compared with the HFD group: intragastric 0.75 mg-3 mg/Kg once/day, after 8 weeks
Protocol: C57/B16J mice were used in the SPF mice experiment. At the beginning of the experiment, C57/B16J mice were 4 weeks old, and each weighed 15±1 g. They were raised in a room with suitable temperature and humidity control, and the light/dark cycle was 12 hours, free diet and drinking water, and fed with standard laboratory feed (also known as growth and reproduction feed, item number SPFSLFZ003, product of SPF (Beijing) Experimental Animal Technology Co., Ltd.). After one week of adaptation, they were randomly assigned to a cage, 4-6 mice per cage.
A total of 12 treatments were set up, each with 2 cages of C57/B16J mice, and each treatment was subjected to different feeding treatments, specifically as follows:
NC group (i.e. normal diet group): fed with standard laboratory feed (also known as growth and reproduction feed, SPFSLFZ003), free diet and drinking water, each intragastrically administrated with 0.2 ml solvent daily for 8 weeks.
HFD group (i.e. high-fat diet group): fed with high-fat diet, the high-fat diet used was rodent feed (containing 60% fat, D12492, formula reference Le Roy, T., et al. Dysosmobacter welbionis is a newly isolated human commensal bacterium preventing diet-induced obesity and metabolic disorders in mice. Gut (2021).), free diet and drinking water, each intragastrically administrated with 0.2 ml solvent daily for 8 weeks.
(§1) D1 group (i.e. high-fat diet+D1 intragastric administration group): fed with high-fat diet, free diet and drinking water. Intragastrically administrated with synthetic D1, 0.75 mg-3 mg/Kg body weight, 0.2 ml, once/day for 8 weeks.
(§2) D2 group (i.e. high-fat diet+D2 intragastric administration group): fed with high-fat diet, free diet and drinking water. Intragastrically administrated with synthetic D2, 0.75 mg-3 mg/Kg body weight, 0.2 ml, once/day for 8 weeks.
D3 group (i.e. high-fat diet+D3 intragastric administration group): fed with high-fat diet, free diet and drinking water. Intragastrically administrated with synthetic D3, 0.75 mg-3 mg/Kg body weight, 0.2 ml, once/day for 8 weeks.
D4 group (i.e. high-fat diet+D4 intragastric administration group): fed with high-fat diet, free diet and drinking water. Intragastrically administrated with synthetic D4, 0.75 mg-3 mg/Kg body weight, 0.2 ml, once/day for 8 weeks.
D5 group (i.e. high-fat diet+D5 intragastric administration group): fed with high-fat diet, free diet and drinking water. Intragastrically administrated with synthetic D5, 0.75 mg-3 mg/Kg body weight, 0.2 ml, once/day for 8 weeks.
D6 group (i.e. high-fat diet+D6 intragastric administration group): fed with high-fat diet, free diet and drinking water. Intragastrically administrated with synthetic D6, 0.75 mg-3 mg/Kg body weight, 0.2 ml, once/day for 8 weeks.
D7 group (i.e. high-fat diet+D7 intragastric administration group): fed with high-fat diet, free diet and drinking water. Intragastrically administrated with synthetic D7, 0.75 mg-3 mg/Kg body weight, 0.2 ml, once/day for 8 weeks.
D8 group (i.e. high-fat diet+D8 intragastric administration group): fed with high-fat diet, free diet and drinking water. Intragastrically administrated with synthetic D8, 0.75 mg-3 mg/Kg body weight, 0.2 ml, once/day for 8 weeks.
D9 group (i.e. high-fat diet+D9 intragastric administration group): fed with high-fat diet, free diet and drinking water. Intragastrically administrated with synthetic D9, 0.75 mg-3 mg/Kg body weight, 0.2 ml, once/day for 8 weeks.
D10 group (i.e. high-fat diet+D10 intragastric administration group): fed with high-fat diet, free diet and drinking water. Intragastrically administrated with synthetic D10, 0.75 mg-3 mg/Kg body weight, 0.2 ml, once/day for 8 weeks.
The feed intake was tracked every week. After the experiment, the mice were weighed and photographs were taken to compare the body size of the mice. After that, the mice were killed by cervical dislocation. […]

A. muciniphila = test: qPCR of relative abundance of A. muciniphila in intestinal flora of SPF mice; type: in vivo; details: p<0.05
Protocol: In order to verify the changes in the relative abundance of A.muciniphila in the intestinal flora of mice fed with other HD, qPCR experiments were performed on the changes of intestinal flora in mice. Faecal bacterial DNA was extracted from the faeces of mice in the NC, HFD, D1, D2, D3, D5, D7, D8, D9 and D10 groups collected in the pre-SPF mice experiments and then the relative abundance of A. muciniphila was determined using qPCR.

[2] = Short-term feed intake experiment of SPF mice; type: in vivo, C57/B16J mice; details: after 8 weeks of treatment, starved one day then fed
Protocol: A total of 2 treatments were set up, each with one cage of C57/B16J mice, and the high-fat diet used was rodent feed (containing 60 kcal % fat, D12492), and each treatment was subjected to different feeding treatments, specifically as follows:
HFD group (i.e. high-fat diet group): fed with high-fat diet.
as §1, §2
D3 group (i.e. high-fat diet+D3 intragastric administration group): fed with high-fat diet, free diet and drinking water. […]
According to the above treatment, it was carried out for 8 weeks, and then within 1 week, the mice were starved for one day and then given feed, and the feed intake of the animals in the following day was recorded. That is, food weights were recorded every other day (4 separate measurements) and the average daily intake was determined for each 2-day period and calculated for each individual during the one-week measurement period. […]

[3] = cited from earlier work
[4] = Phase 3, overweight or obese adults, subcutaneous 2.4 mg/week

| Compound | subcutaneous and visceral fat weight (inguinal subcutaneous, epididymis, perirenal) vs HFD group [1] | weekly feed intake vs control HFD group [1] | body weight decrease compared with the HFD group [1] [%] | relative abundance of A. muciniphila in the intestinal flora by qPCR (A. muciniphila) | further results |
| --- | --- | --- | --- | --- | --- |
| RTCYCRTGR [D9] | significantly lower than that of the HFD group | significant difference in feed intake | 11.09 | significantly increased |  |
| GTCYKRTGR [D2] | significantly lower than that of the HFD group | significant difference in feed intake | 9.45 | significantly increased |  |
| ATCYRRTGR [D4] |  | no significant effect | 3.55 |  | short-term feed intake vs HFD group [2]: no significant effect |
| GTCYCRTGR [D7] | significantly lower than that of the HFD group | significant difference in feed intake | 8.08 | significantly increased |  |
| semaglutide |  |  |  |  | average weight lost [3, 4]: 15.3 kg; average weight lost, of initial body weight [3, 4]: 14.9%; mean body mass index (BMI) drop [3, 4]: 5.54 |
| RTCYKRTGR [D5] | significantly lower than that of the HFD group | significant difference in feed intake | 11.8 | significantly increased |  |
| C[C@H]1CNCCc2ccc(Cl)cc21 [Lorcaserin] |  |  |  |  | additional weight lost per year ([3]; obese subjects during the medication period): 3.2 to 3.6 kg |
| RTRYKRTGR [D1] | significantly lower than that of the HFD group | significant difference in feed intake | 11.62 | significantly increased |  |
| GTRYCRTGR [D10] | significantly lower than that of the HFD group | significant difference in feed intake | 11.06 | significantly increased |  |
| GTRYKRTGR [D8] | significantly lower than that of the HFD group | significant difference in feed intake | 10.07 | significantly increased |  |
| ATRYCRTGR [D6] |  | no significant effect | 3.78 |  | short-term feed intake vs HFD group [2]: no significant effect |
| CCCCCCCCCCC[C@@H](C[C@@H]1OC(=O)[C@H]1CCCCCC)OC(=O)[C@H](CC(C)C)NC=O [orlistat, Orlistat] |  |  |  |  | body weight lost ([3]; obese patients, within 12 months): 2.9 to 3.4 kg |
